Assay results taken from US9834571B2, “Compounds for inhibiting cell proliferation in EGFR-driven cancers” (ARIAD Pharmaceuticals, Inc., priority 2012, dated 2017).
Where two headings read alike, the source gives them in different places.

Experiments:
[1] = biological target: human EGFR (native sequence) (Homo sapiens, UniProt P00533); assay: Kinase inhibitory activity against human EGFR (native sequence); type: biochemical; conditions: 10 μM ATP, read-out: IC50 for kinase inhibition, EGFR
Procedure, shortened: (§1)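 With ATP at 10 μM, single-replicate 10-point dose curves starting at 3 μM top concentration were run against each EGFR form: wild-type, L858R, and the L858R/T790M double mutant.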

EGFR L858R = EGFR L858R (Homo sapiens, UniProt P00533, L858R); assay: Kinase inhibitory activity against EGFR bearing the L858R mutation; type: biochemical; conditions: 10 μM ATP, read-out: IC50 for kinase inhibition, EGFR L858R
Chain of EGFR L858R (P00533 25-1210 L858R): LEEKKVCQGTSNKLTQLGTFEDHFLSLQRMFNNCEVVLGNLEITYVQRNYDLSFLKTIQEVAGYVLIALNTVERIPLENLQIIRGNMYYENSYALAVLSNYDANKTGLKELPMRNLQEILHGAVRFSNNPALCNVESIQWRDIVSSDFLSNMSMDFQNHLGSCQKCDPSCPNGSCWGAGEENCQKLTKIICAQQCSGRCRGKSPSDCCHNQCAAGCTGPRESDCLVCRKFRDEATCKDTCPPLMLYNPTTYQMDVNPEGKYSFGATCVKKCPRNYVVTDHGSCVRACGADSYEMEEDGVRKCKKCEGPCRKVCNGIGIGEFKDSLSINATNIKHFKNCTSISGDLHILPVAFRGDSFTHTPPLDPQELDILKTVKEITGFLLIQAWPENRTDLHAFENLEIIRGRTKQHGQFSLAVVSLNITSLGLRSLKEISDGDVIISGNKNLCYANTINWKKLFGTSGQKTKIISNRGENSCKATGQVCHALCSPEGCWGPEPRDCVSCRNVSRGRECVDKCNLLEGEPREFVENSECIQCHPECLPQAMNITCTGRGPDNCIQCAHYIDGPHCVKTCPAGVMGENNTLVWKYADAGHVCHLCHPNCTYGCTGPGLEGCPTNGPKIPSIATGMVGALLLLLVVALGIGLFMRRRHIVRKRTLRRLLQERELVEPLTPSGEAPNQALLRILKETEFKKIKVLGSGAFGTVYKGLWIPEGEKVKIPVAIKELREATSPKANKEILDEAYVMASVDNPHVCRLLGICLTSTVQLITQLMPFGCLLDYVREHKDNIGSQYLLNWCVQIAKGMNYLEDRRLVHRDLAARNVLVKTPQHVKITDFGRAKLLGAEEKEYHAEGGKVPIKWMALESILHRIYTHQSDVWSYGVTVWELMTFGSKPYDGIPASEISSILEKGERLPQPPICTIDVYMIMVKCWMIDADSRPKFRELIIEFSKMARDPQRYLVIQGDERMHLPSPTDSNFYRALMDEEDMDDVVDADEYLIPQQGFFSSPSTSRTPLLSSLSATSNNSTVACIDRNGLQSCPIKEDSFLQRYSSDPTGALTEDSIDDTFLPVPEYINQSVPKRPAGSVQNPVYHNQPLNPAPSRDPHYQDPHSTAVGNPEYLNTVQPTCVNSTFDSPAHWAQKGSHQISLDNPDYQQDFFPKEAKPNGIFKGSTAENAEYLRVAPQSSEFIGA
Procedure, shortened: as §1

EGFR L858R/T790M = EGFR L858R/T790M (Homo sapiens, UniProt P00533, L858R/T790M); assay: Kinase inhibitory activity against EGFR bearing the L858R/T790M double mutation; type: biochemical; conditions: 10 μM ATP, read-out: IC50 for kinase inhibition, EGFR L858R T790M
Chain of EGFR L858R/T790M (P00533 25-1210 T790M/L858R): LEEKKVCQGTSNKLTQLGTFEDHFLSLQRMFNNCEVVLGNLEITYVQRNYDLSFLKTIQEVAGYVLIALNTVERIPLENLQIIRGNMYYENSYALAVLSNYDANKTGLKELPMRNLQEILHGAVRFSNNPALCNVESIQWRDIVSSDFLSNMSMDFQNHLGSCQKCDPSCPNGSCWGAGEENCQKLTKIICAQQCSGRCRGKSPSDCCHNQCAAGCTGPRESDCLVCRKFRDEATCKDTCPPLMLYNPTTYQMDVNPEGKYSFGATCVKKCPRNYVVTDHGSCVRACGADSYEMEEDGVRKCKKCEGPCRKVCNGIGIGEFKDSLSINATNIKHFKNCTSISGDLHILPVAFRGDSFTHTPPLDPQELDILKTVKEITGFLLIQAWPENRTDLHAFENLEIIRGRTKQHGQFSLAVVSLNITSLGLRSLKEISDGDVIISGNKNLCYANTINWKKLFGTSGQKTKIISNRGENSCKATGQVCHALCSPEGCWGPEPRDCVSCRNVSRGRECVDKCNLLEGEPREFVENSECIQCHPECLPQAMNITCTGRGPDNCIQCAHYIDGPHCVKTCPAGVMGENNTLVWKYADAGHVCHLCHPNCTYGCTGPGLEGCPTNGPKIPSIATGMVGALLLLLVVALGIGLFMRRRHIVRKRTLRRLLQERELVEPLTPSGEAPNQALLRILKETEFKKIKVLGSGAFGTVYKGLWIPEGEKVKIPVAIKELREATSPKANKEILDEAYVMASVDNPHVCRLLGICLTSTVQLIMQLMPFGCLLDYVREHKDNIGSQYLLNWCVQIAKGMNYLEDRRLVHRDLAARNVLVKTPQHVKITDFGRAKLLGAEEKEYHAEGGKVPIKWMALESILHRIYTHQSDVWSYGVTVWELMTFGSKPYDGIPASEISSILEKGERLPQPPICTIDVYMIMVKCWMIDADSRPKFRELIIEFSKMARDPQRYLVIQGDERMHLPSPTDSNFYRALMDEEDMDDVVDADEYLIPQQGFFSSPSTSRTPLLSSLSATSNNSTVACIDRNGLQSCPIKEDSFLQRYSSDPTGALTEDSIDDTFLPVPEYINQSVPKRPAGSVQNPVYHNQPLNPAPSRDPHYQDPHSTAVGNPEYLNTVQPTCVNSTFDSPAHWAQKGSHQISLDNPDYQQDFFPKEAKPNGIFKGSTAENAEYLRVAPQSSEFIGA
Procedure, shortened: as §1

[2] = biological target: T1, BaF3 cells expressing the target EGFR mutations (Homo sapiens, UniProt P00533, T790M, cells depend on it, form not given); assay: Antiproliferative activity (MTT) against BaF3 cells expressing the target EGFR mutations; type: cell-based; conditions: BAF3 EGFR DEL T790M PURO POOL cells, read-out: IC50, BAF3 EGFR DEL T790M PURO POOL
T1 construct: IC50, BAF3 EGFR DEL T790M PURO POOL; other: BAF3 EGFR DEL T790M PURO POOL cells, MTT; other: BAF3 EGFR DEL T790M PURO POOL cells; MTT
T1 sequence (P00533 with tags, fused parts or gaps DEL746-750/T790M, form open): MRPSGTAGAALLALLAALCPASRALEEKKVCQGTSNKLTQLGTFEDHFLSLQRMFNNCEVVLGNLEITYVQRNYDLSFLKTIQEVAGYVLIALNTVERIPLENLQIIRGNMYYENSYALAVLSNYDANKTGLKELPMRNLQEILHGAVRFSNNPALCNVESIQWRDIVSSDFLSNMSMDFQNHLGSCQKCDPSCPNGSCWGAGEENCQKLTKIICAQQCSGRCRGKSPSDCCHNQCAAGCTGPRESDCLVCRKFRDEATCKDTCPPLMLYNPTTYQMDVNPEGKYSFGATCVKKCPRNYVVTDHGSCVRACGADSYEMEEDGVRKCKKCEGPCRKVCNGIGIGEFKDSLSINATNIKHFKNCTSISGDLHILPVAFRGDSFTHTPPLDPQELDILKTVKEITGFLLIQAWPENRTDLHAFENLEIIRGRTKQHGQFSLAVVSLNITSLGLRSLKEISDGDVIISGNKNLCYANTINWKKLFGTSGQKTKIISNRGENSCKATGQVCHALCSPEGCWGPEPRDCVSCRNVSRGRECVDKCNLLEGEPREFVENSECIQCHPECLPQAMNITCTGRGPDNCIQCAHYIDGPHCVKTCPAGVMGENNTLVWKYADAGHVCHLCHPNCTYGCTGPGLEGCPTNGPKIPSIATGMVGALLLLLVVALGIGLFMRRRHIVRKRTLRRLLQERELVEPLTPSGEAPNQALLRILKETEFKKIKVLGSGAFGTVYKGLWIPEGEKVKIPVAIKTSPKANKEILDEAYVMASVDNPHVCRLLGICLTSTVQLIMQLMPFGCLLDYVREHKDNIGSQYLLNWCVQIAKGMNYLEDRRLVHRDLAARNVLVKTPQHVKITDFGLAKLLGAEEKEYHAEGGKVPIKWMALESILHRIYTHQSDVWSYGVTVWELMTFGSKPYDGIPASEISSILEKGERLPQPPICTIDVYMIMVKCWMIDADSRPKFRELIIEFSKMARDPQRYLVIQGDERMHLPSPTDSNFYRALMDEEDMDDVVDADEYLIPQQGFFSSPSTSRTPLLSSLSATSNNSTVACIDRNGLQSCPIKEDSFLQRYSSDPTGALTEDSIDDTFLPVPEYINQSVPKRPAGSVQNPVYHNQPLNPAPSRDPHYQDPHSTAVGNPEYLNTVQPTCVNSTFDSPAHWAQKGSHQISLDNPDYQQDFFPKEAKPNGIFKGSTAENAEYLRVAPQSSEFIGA
Procedure, shortened: (§2)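 MTT read-out; BaF3 lines carrying EGFR mutations vs wildtype-EGFR BaF3 control.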

[3] = biological target: T2, BaF3 cells expressing the target EGFR mutations (Homo sapiens, UniProt P00533, T790M/L858R, cells depend on it); assay: as above; type: cell-based; conditions: BAF3 EGFR L858R-T790M PURO POOL cells, read-out: IC50, BAF3 EGFR L858R-T790M PURO POOL
T2 construct: IC50, BAF3 EGFR L858R-T790M PURO POOL; other: BAF3 EGFR L858R-T790M PURO POOL cells, MTT; IC50, BAF3 EGFR L858R-T790M PURO POOL; other: BAF3 EGFR L858R-T790M PURO POOL cells; MTT
Procedure, shortened: as §2

[4] = test system: BaF3 cells expressing wildtype EGFR; assay: Antiproliferative activity (MTT) against control BaF3 cells expressing wildtype EGFR; type: cell-based; conditions: Mus musculus
Procedure, shortened: as §2

[5] = EGFR L858R/T790M double mutation
[6] = 10 pt curves, 3 μM top concentration

Chain of human EGFR (native sequence) (P00533 25-1210): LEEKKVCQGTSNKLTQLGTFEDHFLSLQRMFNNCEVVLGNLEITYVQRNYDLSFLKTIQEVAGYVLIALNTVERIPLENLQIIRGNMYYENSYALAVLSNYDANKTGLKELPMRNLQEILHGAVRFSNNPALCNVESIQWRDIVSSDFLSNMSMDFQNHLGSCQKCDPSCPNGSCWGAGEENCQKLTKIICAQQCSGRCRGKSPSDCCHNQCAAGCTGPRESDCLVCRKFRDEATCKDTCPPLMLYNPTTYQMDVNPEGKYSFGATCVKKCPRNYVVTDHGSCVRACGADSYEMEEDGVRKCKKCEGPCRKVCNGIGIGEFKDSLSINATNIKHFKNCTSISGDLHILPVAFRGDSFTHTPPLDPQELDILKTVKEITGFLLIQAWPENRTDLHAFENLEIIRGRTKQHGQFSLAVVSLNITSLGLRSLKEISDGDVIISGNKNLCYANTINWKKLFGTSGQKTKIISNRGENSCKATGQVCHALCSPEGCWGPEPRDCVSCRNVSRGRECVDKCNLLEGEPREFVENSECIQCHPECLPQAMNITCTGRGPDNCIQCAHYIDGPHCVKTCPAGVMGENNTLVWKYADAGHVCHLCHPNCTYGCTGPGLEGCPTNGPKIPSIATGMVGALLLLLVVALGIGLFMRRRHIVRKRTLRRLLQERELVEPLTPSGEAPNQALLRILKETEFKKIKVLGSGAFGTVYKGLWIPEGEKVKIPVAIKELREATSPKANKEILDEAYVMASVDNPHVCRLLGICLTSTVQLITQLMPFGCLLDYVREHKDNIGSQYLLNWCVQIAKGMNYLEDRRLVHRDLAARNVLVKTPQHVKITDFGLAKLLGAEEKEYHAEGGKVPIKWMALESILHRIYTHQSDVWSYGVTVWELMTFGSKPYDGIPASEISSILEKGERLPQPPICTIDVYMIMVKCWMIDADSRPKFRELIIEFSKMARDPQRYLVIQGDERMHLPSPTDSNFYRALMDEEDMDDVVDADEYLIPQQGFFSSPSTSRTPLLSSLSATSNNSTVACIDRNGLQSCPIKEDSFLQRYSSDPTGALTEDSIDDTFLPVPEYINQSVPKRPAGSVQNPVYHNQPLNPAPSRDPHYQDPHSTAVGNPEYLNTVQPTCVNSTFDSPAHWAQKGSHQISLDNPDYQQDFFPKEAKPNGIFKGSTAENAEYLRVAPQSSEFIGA

SMILES | IC50 ([1]; human EGFR native sequence) | IC50 (EGFR L858R; EGFR L858R) | IC50 (EGFR L858R/T790M; [5]) | GI50 [2] | GI50 [3] | IC50 ([4]; BAF3 PARENTAL cells (control)) | IC50 [1, 6] | IC50 (EGFR L858R; [6]) | IC50 (EGFR L858R/T790M; [6]) | IC50 ([4]; BAF3 parental cells)
COc1cc(F)c(NC(=O)C#CCN2CCCC2)cc1Nc1ncc(Cl)c(Nc2ccccc2P(C)(C)=O)n1 [Example 89, N-(5-((5-chloro-4-((2-(dimethylphosphoryl)phenyl)amino)pyrimidin-2-yl)amino)-2-fluoro-4-methoxyphenyl)-4-(pyrrolidin-1-yl)but-2-ynamide] | < 50 nM | < 50 nM | < 50 nM | < 50 nM | < 50 nM | ≥ 250 nM | – | – | – | –
C=CC(=O)Nc1cc(Nc2ncc(Cl)c(Nc3ccccc3P(C)(C)=O)n2)c(OC)cc1C#CC1(N(C)C)CC1 [Example 73, N-(5-((5-chloro-4-((2-(dimethylphosphoryl)phenyl)amino)pyrimidin-2-yl)amino)-2-((1-(dimethylamino)cyclopropyl)ethynyl)-4-methoxyphenyl)acrylamide] | ≥ 250 nM | < 50 nM | < 50 nM | 101 to 250 nM | 101 to 250 nM | ≥ 250 nM | – | – | – | –
C=CC(=O)Nc1ccc(OCCN(C)C)c(Nc2ncc(Cl)c(Nc3ccccc3P(C)(C)=O)n2)c1 [Example 117, N-(3-((5-chloro-4-((2-(dimethylphosphoryl)phenyl)amino)pyrimidin-2-yl)amino)-4-(2-(dimethylamino)ethoxy)phenyl)acrylamide] | – | – | – | ≥ 250 nM | ≥ 250 nM | – | ≥ 250 nM | ≥ 250 nM | ≥ 250 nM | ≥ 250 nM
C=CC(=O)Nc1cc(Nc2ncc(Cl)c(Nc3ccccc3P(C)(C)=O)n2)c(OC)cc1OC(COCC)CN(C)C (stereo not drawn) [Example 142, N-(5-((5-chloro-4-((2-(dimethylphosphoryl)phenyl)amino)pyrimidin-2-yl)amino)-2-((1-(dimethylamino)-3-ethoxypropan-2-yl)oxy)-4-methoxyphenyl)acrylamide] | – | – | – | < 50 nM | < 50 nM | – | < 50 nM | < 50 nM | < 50 nM | ≥ 250 nM
C=CC(=O)Nc1cc(Nc2ncc(Cl)c(Nc3ccccc3P(C)(C)=O)n2)c(OC)cc1OCc1ccncc1 [Example 11, N-(5-((5-chloro-4-((2-(dimethylphosphoryl)phenyl)amino)pyrimidin-2-yl)amino)-4-methoxy-2-(pyridin-4-ylmethoxy)phenyl)acrylamide] | < 50 nM | < 50 nM | < 50 nM | < 50 nM | 101 to 250 nM | ≥ 250 nM | – | – | – | –
C=CC(=O)Nc1cc(Nc2ncc(Cl)c(Nc3ccccc3P(C)(C)=O)n2)c(OC)cc1C(=O)N1CCN(C)CC1 [Example 56, N-(5-((5-chloro-4-((2-(dimethylphosphoryl)phenyl)amino)pyrimidin-2-yl)amino)-4-methoxy-2-(4-methylpiperazine-1-carbonyl)phenyl)acrylamide] | 101 to 250 nM | < 50 nM | < 50 nM | ≥ 250 nM | ≥ 250 nM | ≥ 250 nM | – | – | – | –
C=CC(=O)Nc1cc(Nc2ncc(Cl)c(Nc3ccccc3P(C)(C)=O)n2)c(OC)cc1C#CCN(C)C [Example 124, N-(5-((5-chloro-4-((2-(dimethylphosphoryl)phenyl)amino)pyrimidin-2-yl)amino)-2-(3-(dimethylamino)prop-1-yn-1-yl)-4-methoxyphenyl)acrylamide] | – | – | – | < 50 nM | < 50 nM | – | < 50 nM | < 50 nM | < 50 nM | ≥ 250 nM
C=CC(=O)Nc1cc(Nc2ncc(Cl)c(Nc3ccccc3P(C)(C)=O)n2)c(OC)cc1N1CCC(N2CCC(O)C2)C1 (stereo not drawn) [Example 35, N-(5-((5-chloro-4-((2-(dimethylphosphoryl)phenyl)amino)pyrimidin-2-yl)amino)-2-(3-hydroxy-[1,3′-bipyrrolidin]-1′-yl)-4-methoxyphenyl)acrylamide] | < 50 nM | < 50 nM | < 50 nM | 101 to 250 nM | ≥ 250 nM | ≥ 250 nM | – | – | – | –
C=CC(=O)Nc1cc(Nc2ncc(Cl)c(Nc3ccccc3P(C)(C)=O)n2)c(Cl)cc1C#CCN(C)C [Example 156, N-(4-chloro-5-((5-chloro-4-((2-(dimethylphosphoryl)phenyl)amino)pyrimidin-2-yl)amino)-2-(3-(dimethylamino)prop-1-yn-1-yl)phenyl)acrylamide] | – | – | – | < 50 nM | < 50 nM | – | < 50 nM | < 50 nM | < 50 nM | ≥ 250 nM
COCC#CC(=O)Nc1ccc(OC)c(Nc2ncc(Cl)c(Nc3ccccc3P(C)(C)=O)n2)c1 [Example 97, N-(3-((5-chloro-4-((2-(dimethylphosphoryl)phenyl)amino)pyrimidin-2-yl)amino)-4-methoxyphenyl)-4-methoxybut-2-ynamide] | < 50 nM | < 50 nM | < 50 nM | < 50 nM | < 50 nM | ≥ 250 nM | – | – | – | –
C=CC(=O)Nc1cc(Nc2ncc(Cl)c(Nc3ccccc3P(C)(C)=O)n2)c(CC)cc1C#CCN(C)C [Example 152, N-(5-((5-chloro-4-((2-(dimethylphosphoryl)phenyl)amino)pyrimidin-2-yl)amino)-2-(3-(dimethylamino)prop-1-yn-1-yl)-4-ethylphenyl)acrylamide] | – | – | – | < 50 nM | < 50 nM | – | < 50 nM | < 50 nM | < 50 nM | ≥ 250 nM
C=CC(=O)Nc1cc(Nc2ncc(Cl)c(Nc3ccccc3P(C)(C)=O)n2)c(OC)cc1C#CCN1CCCC1 [Example 157, N-(5-((5-chloro-4-((2-(dimethylphosphoryl)phenyl)amino)pyrimidin-2-yl)amino)-4-methoxy-2-(3-(pyrrolidin-1-yl)prop-1-yn-1-yl)phenyl)acrylamide] | – | – | – | < 50 nM | < 50 nM | – | < 50 nM | < 50 nM | < 50 nM | ≥ 250 nM
C=CC(=O)Nc1ccc(OC)c(Nc2ncc(Cl)c(Nc3ccc(OCCCN(C)C)cc3P(C)(C)=O)n2)c1 [Example 126, N-(3-((5-chloro-4-((4-(3-(dimethylamino)propoxy)-2-(dimethylphosphoryl)phenyl)amino)pyrimidin-2-yl)amino)-4-methoxyphenyl)acrylamide] | – | – | – | < 50 nM | < 50 nM | – | < 50 nM | < 50 nM | < 50 nM | ≥ 250 nM
C=CC(=O)Nc1cc(Nc2ncc(Cl)c(Nc3ccccc3P(C)(C)=O)n2)c(OC)cc1CCN1CCN(C)CC1 [Example 74, N-(5-((5-chloro-4-((2-(dimethylphosphoryl)phenyl)amino)pyrimidin-2-yl)amino)-4-methoxy-2-(2-(4-methylpiperazin-1-yl)ethyl)phenyl)acrylamide] | < 50 nM | < 50 nM | < 50 nM | 101 to 250 nM | ≥ 250 nM | ≥ 250 nM | – | – | – | –
C=CC(=O)Nc1cc(Nc2ncc(Cl)c(Nc3ccccc3P(C)(C)=O)n2)c(Cl)cc1OC(COC)CN(C)C (stereo not drawn) [Example 145, N-(4-chloro-5-((5-chloro-4-((2-(dimethylphosphoryl)phenyl)amino)pyrimidin-2-yl)amino)-2-((1-(dimethylamino)-3-methoxypropan-2-yl)oxy)phenyl)acrylamide] | – | – | – | < 50 nM | < 50 nM | – | < 50 nM | < 50 nM | < 50 nM | ≥ 250 nM
